Patent US20150289512A1, “METHOD FOR PROMOTING PLANT GROWTH” (SUMITOMO CHEMICAL COMPANY, LIMITED, priority 2012, published 2015)

Assays:
Assay type in all cases: in vivo
[1] = test system: Rice (variety: Nipponbare); assay: Test Example 1: promotion of root growth by hydroponics of rice, 10 ppm; conditions: hydroponic solution containing the test compound at 10 ppm, average of 4 or 5 individuals; for change in vivo at 10 ppm: Oryza sativa, read-out: Relative value of length of seminal root (%-untreated control plot)
Experimental: (§1) Test for Evaluating Promotion of Root Growth by Hydroponics of Rice
(§2) Rice (variety: Nipponbare)
(§3) Rice seeds were soaked in a 1% aqueous sodium hypochlorite solution for 10 minutes, then soaked in a 70% ethanol solution for surface sterilization, and then washed with distilled water. The sterilized seeds were soaked in a hydroponic solution containing the test compound described above at 10 ppm and incubated in a dark place for 3 days at 28° C. to perform treatment for hastening germination.
(§4) Thereafter, 30 ml of hydroponic solution containing the test compound at 10 ppm was dispensed in a plastic tube (diameter of 20 mm×height of 113 mm) of which the side was covered with cardboard to block light. A float prepared using a styrene board and vinyl mesh was floated, and the rice seeds that had undergone the treatment for hastening germination were placed on the float on the surface of the hydroponic solution. The seeds were cultivated for 3 days at 26° C., an illuminance of 4,000 lux of the top surface of the tube, a humidity of 50%, and a day length of 16 hours.
(§5) The nursery plants of rice obtained after culturing were measured in terms of the length of seminal root by using WinRHIZO system (manufactured by Regent Instruments Inc). For each test plot, an average of the measured values of the seminal root of 4 or 5 individuals was determined.

[2] = test system: Rice (variety: Nipponbare); assay: Test Example 2: promotion of root growth by hydroponics of rice, 1 ppm; conditions: hydroponic solution containing the test compound at 1 ppm, average of 4 or 5 individuals; for change in vivo at 1 ppm: Oryza sativa, read-out: Relative value of length of seminal root (%-untreated control plot)
Experimental: as §1, §2
A DMSO solution, which contained one of the compounds 1, 3, 11, 12, 14, 15, 17, 21, 28, 30, 33, 34, 35, 36, 37, 38, 40, 41, 43, 44, 45, 46, 47, 49, 50, 51, 52, 53, 54, 55, 56, 61, 62, 63, 65, 67, 68, 69, 70, 73, 74, 75, 76, 77, 80, 82, 83, 85 and 86 of the present invention at a concentration of 10,000 ppm, was added to Hoagland hydroponic solution (Hoagland and Arnon, California Agricultural Experiment Station 1950 Circular 347 pp. 34) of ¼-fold concentration at a volume ratio of 1/10,000. In this manner, hydroponic solutions containing one of the compounds 1, 3, 11, 12, 14, 15, 17, 21, 28, 30, 33, 34, 35, 36, 37, 38, 40, 41, 43, 44, 45, 46, 47, 49, 50, 51, 52, 53, 54, 55, 56, 61, 62, 63, 65, 67, 68, 69, 70, 73, 74, 75, 76, 77, 80, 82, 83, 85 and 86 of the present invention at 1 ppm were prepared respectively. As an untreated control plot, a hydroponic solution obtained by adding DMSO to Hoagland hydroponic solution of ¼-fold concentration at a volume ratio of 1/10,000 was used. Rice seeds were soaked in a 1% aqueous sodium hypochlorite solution for 10 minutes, then soaked in a 70% ethanol solution for surface sterilization, and then washed with distilled water. The sterilized seeds were soaked in a hydroponic solution containing the test compound described above at 1 ppm and incubated in a dark place for 3 days at 28° C. to perform treatment for hastening germination.
as §4, with “1” for “10”
The nursery plants of rice obtained after cultivation were measured in terms of the length of seminal root by using WinRHIZO system (manufactured by Regent Instruments Inc). For each test plot, an average of the measured values of the seminal root of 4 or 5 individuals was determined.

[3] = test system: Rice (variety: Nipponbare); assay: Test Example 3: promotion of root growth by hydroponics of rice, 0.1 ppm; conditions: Oryza sativa, hydroponic solution containing the test compound at 0.1 ppm, average of 4 or 5 individuals, read-out: Relative value of length of seminal root (%-untreated control plot)
Experimental: as §1, §2
A DMSO solution, which contained one of the compounds 2, 6, 7, 16, 20, 33, 34, 36, 37, 38, 40, 41, 43, 44, 45, 46, 47, 48, 50, 51, 52, 53, 54, 55, 56, 61, 64, 67, 68, 71, 72, 73, 74, 75, 76, 79, 80, 81 and 83 of the present invention at a concentration of 1,000 ppm, was added to Hoagland hydroponic solution (Hoagland and Arnon, California Agricultural Experiment Station 1950 Circular 347 pp. 34) of ¼-fold concentration at a volume ratio of 1/10,000. In this manner, hydroponic solutions containing one of the compounds 2, 6, 7, 16, 20, 33, 34, 36, 37, 38, 40, 41, 43, 44, 45, 46, 47, 48, 50, 51, 52, 53, 54, 55, 56, 61, 64, 67, 68, 71, 72, 73, 74, 75, 76, 79, 80, 81 and 83 of the present invention at 0.1 ppm were prepared respectively. As an untreated control plot, a hydroponic solution obtained by adding DMSO to Hoagland hydroponic solution of ¼-fold concentration at a volume ratio of 1/10,000 was used.
as §3, with “at 0.1” for “at 10”
as §4, with “0.1” for “10”
as §5

[4] = test system: Nicotiana benthamiana; assay: Test Example 4: growth promotion under low-temperature stress by hydroponics of Nicotiana benthamiana, 10 ppm; conditions: 10 ppm in medium, low-temperature stress 7 days at 1.5±1.0° C., green leaf area 3 days later, equation (1)
Experimental: Test for Evaluating Growth Promotion Under Low-Temperature Stress by Hydroponics of Nicotiana benthamiana
A DMSO solution, which contained one of the compounds 1, 8, 9, 13, 18, 19, 22, 23, 29, 32, 33, 34, 39, 40, 41, 43, 44, 51, 53, 54, 55, 56, 58, 60, 62, 63, 64, 65, 67, 69, 71, 73, 74, 75, 77, 79, 82, 83 and 86 of the present invention at a concentration of 10,000 ppm, was prepared. The DMSO solution of the compound of the present invention was added at a volume ratio of 1/1,000 to the Murashige•Scoog medium of a ½-fold concentration (a medium containing 2.3 g of mixed salts for the Murashige•Scoog medium (manufactured by Wako Pure Chemical Industries, Ltd.), 200 mg of Myo-inositol (manufactured by Sigma-Aldrich Co. LLC.), 2 mg of nicotinic acid (manufactured by Wako Pure Chemical Industries, Ltd.), 2 mg of pyridoxine hydrochloride (manufactured by Wako Pure Chemical Industries, Ltd.), 20 mg of thiamine hydrochloride (manufactured by Wako Pure Chemical Industries, Ltd.), 20 g of sucrose (manufactured by Wako Pure Chemical Industries, Ltd.), and 1 g of MES (manufactured by DOJINDO LABORATORIES) per 1 L of water and having pH adjusted to 5.8), thereby preparing a medium containing the compound of the present invention at a concentration of 10 ppm.
Seeds of Nicotiana benthamiana were seeded in the 5 μL of the medium and cultured overnight at 22° C. Thereafter, 45 μL of the medium containing the compound of the present invention at a concentration of 10 ppm was added thereto, and the seeds are cultivated for 7 days at 22° C., an illuminance of 4,000 lux, and a day length of 16 hours, and the nursery plants raised from the Nicotiana benthamiana were treated with the compound. Moreover, instead of the above medium, a test plot, which was obtained by performing the same treatment by using a medium prepared by adding DMSO to the Murashige•Scoog medium of ½-fold concentration at a volume ratio of 1/1,000, was used as a control plot not treated with the compound.
The nursery plants of the Nicotiana benthamiana treated with the compound were subjected to low-temperature treatment by being cultivated for 7 days at 1.5±1.0° C., an illuminance of 2,000 lux, and a day length of 16 hours.
The nursery plants of the Nicotiana benthamiana having undergone the low-temperature stress treatment were cultivated for 3 days at 22° C., an illuminance of 4,000 lux, and a day length of 16 hours. Thereafter, the area of green leaf was quantified by Scanalyzer HTS (manufactured by LemnaTec GmbH). Moreover, the value of the control plot not treated with the compound that had not yet been subjected to the low-temperature stress treatment was measured in the same manner. A value of a relative leaf area was calculated based on the following equation (1), and if the value of a relative leaf area was 5 or greater, the compound was evaluated to have a mitigating effect. As a result of the evaluation, it was confirmed that when the plant was treated with one of the compounds 1, 8, 9, 13, 18, 19, 22, 23, 29, 32, 33, 34, 39, 40, 41, 43, 44, 51, 53, 54, 55, 56, 58, 60, 62, 63, 64, 65, 67, 69, 71, 73, 74, 75, 77, 79, 82, 83 and 86 of the present invention at 10 ppm, the value of a relative leaf area was 5 or greater, compared to the area of green leaf of the control plot not treated with compound. Accordingly, it was confirmed that the treatment using the compound of the present invention brings about a growth promotion effect.
Relative leaf area=100*(a green area of a plot treated with the compound of the present invention−a green area of a control plot not treated with the compound of the present invention)/(a green area of a control plot not treated with the compound of the present invention that has not yet been subjected to low-temperature stress treatment−a green area of a control plot not treated with the compound of the present invention) Equation (1): […]

Row | Compound | change in vivo at 10 ppm [1] [%] | change in vivo at 1 ppm [2] [%] | other results
1 | COC(=O)c1nc2ccc(C(F)(F)F)cc2n1C [Compound 25, methyl 1-methyl-6-trifluoromethylbenzimidazole-2-carboxylate] | > 5 | – | –
2 | Cn1c(C(=O)O)cc2ccccc21 [Compound 14] | – | – | Relative value of length of seminal root (%-untreated control plot) [2]: >5%
3 | COC(=O)c1cc2ccccc2[nH]1 [Compound 13] | – | – | Relative value of length of seminal root (%-untreated control plot) [1]: >5%
4 | CCOC(=O)c1cc2cccc(C(F)(F)F)c2[nH]1 [Compound 12] | – | – | Relative value of length of seminal root (%-untreated control plot) [2]: >5%
5 | COC(=O)c1oc2ccccc2c1O [Compound 35] | > 5 | > 5 | –
6 | CCOC(=O)c1cc2ccc(C(F)(F)F)cc2o1 [Compound 46] | > 5 | > 5 | change in vivo at 0.1 ppm [3]: > 5%
7 | COc1ccc(NC(=O)c2cc3cc(C(F)(F)F)ccc3[nH]2)c(OC)c1 [Compound 10, N-(2,4-dimethoxyphenyl)-5-trifluoromethylindole-2-carboxamide] | > 5 | – | –
8 | O=C(O)c1nc2ccccc2[nH]1 [Compound 18] | > 5 | – | relative leaf area at 10 ppm [4]: ≥ 5%
9 | COC(=O)c1nc2ccccc2[nH]1 [Compound 19] | – | – | Relative value of length of seminal root (%-untreated control plot) [1]: >5%
10 | COC(=O)c1cc2ccccc2n1C [Compound 15] | – | > 5 | –
11 | COC(=O)c1oc2ccccc2c1NS(=O)(=O)c1ccccc1 [Compound 61] | > 5 | > 5 | change in vivo at 0.1 ppm [3]: > 5%
12 | Nc1c(C(=O)O)oc2ccc(C(F)(F)F)cc12 [Compound 49] | > 5 | > 5 | –
13 | O=C(O)c1cc2ccc(C(F)(F)F)cc2o1 [Compound 47] | > 5 | > 5 | change in vivo at 0.1 ppm [3]: > 5%
14 | COC(=O)c1oc2ccccc2c1N(C(=O)C(F)(F)F)C(=O)C(F)(F)F [Compound 38] | > 5 | > 5 | change in vivo at 0.1 ppm [3]: > 5%
15 | O=C(O)c1cc2cccc(C(F)(F)F)c2[nH]1 [Compound 11] | – | – | Relative value of length of seminal root (%-untreated control plot) [2]: >5%
16 | O=C(Oc1ccccc1)c1oc2ccc(C(F)(F)F)cc2c1C(F)(F)F [Compound 72] | – | – | change in vivo at 0.1 ppm [3]: > 5%
17 | COC(=O)c1nc2cccnc2n1C [Compound 26, methyl 3-methyl-3H-imidazo[4,5-b]pyridine-2-carboxylate] | > 5 | – | –
